Assays:
HEK293 cells [1] = assay: Pharmacological blocking of MM 1-induced calcium responses; type: cell-based; details: role: inhibitor, MM 1 + light
Description: FIGS. 14A-14J—Mechanistic study of MM-induced ICW. (a) Schematic of possible mechanisms by which calcium can enter the cytoplasm. Prepared with Biorender.com. (b) Confocal microscope images of HEK293 cells treated with MM 1, MitoTracker Green, ER Tracker Red, and CellMask Deep Red. Scale bars are both 20 μm and apply to the images in the same row. (c-h) Calcium waves elicited by MM 1-treated cells (c) in calcium-free PBS, (d) in RR (1 μM), (e) in Gd^3+ (50 μM), (f) after treatment of cells with Th (1 μM), (g) in Ry (100 μM), (h) in XeC (25 μM), (i) in U-73 (10 μM), (j) after pre-treatment of cells with Cyto D (2 μM). The solid line represents the calcium profiles averaged from six independent cells. The shaded region represents the standard error of the mean (n=6). Stimuli were presented after 30 s of imaging in each case, and the time of stimulus presentation is indicated by the vertical cyan line. […] All stimuli were delivered with a pulse width of 250 ms to a circular area of diameter 5 μm at a power ranging from 3.2×10^2 W cm^−2 to 5.1×10^2 W cm^−2. For all plots, the cyan line indicates the time of stimulus presentation. Controls and experimental groups were imaged and stimulated on the same day using the same conditions and with the same batch of cells. Error bars in the bar graphs represent the standard deviation of the mean of n=3 experiments (at least 6 stimulated cells per experiment). Statistical analyses were performed using a one-tailed Welch's t-test. * P-value<0.05, ** P-value<0.01, *** P-value<0.001, **** P-value<0.0001.
Imaging was conducted in imaging extracellular buffer (iECB; 119 mM NaCl, 5 mM KCl, 10 mM HEPES, 2 mM CaCl2, 1 mM MgCl2 (pH 7.2); 320 mOsm). Imaging in calcium-free medium was conducted in phosphate-buffered saline. Cells were prepared for imaging by seeding a 35 mm Ibidi imaging dish with ~50,000 cells in 1 mL of DMEM, and grown at 37 °C, 5% CO2 for 2 days. Prior to imaging, cells were incubated with dyes and/or molecules resuspended in complete growth medium at the appropriate concentration (MM 1 (8 μM), MM 2 (8 μM), MM 3 (24 μM), MM 4 (8 μM), Fluo-4 (2 μM)). MM and Fluo-4 were loaded into cells for 45 min. Cells treated with thapsigargin were exposed for 30 min after MM and Fluo-4 loading. Cells treated with organelle-targeting dyes were exposed for 5 min after MM loading. Ruthenium red and Gd^3+ were included in the imaging medium during stimulation and were associated with cells for 10 min prior to imaging. At the end of incubation, this medium was replaced with the iECB. Unless otherwise specified, all experiments were replicated in triplicate.
Pharmacological Experiments: In pharmacological blocking experiments, cells were loaded with MM and Fluo-4 as previously described. Typical imaging experiments in previously described extracellular buffer were then conducted as a positive control. Then, the imaging buffer was replaced, and the cells were treated as required for each experiment. After a brief recovery period, the cells were imaged again, and six different cells were stimulated. Experiments in calcium-free imaging buffer used phosphate buffered saline. Thapsigargin (Th: 1 μM) and Cytochalasin D (Cyto D; 2 μM) were incubated with cells in complete growth medium for 1 h (Th) or 2 h (Cyto D) before imaging. Ruthenium red (RR; 1 μM), gadolinium (Gd; 50 μM), ryanodine (Ry; 100 μM), xestospongin C (XeC; […]), and U-73122 (U-73; 10 μM) were administered directly into the imaging medium. Cells were incubated in the medium for ~5 min prior to imaging. Traces presented are representative results across at least six cells from single experiments, while bar graphs represent the average results across at least three distinct experiments.

HEK293 cells [2] = assay: ROS scavengers on MM 1-induced calcium waves; type: cell-based; details: melatonin 100 μM, thiourea 50 mM, L-ascorbic acid 2 mM; 1 h; MM 1, 4.5×10^2 W cm^−2
Description: Normalized fluorescence intensity traces of HEK293 cells treated with MM 1 and Fluo-4 and administered (a) melatonin (Mel; 100 μM), (b) thiourea (ThioU; 50 mM), and (c) L-ascorbic acid (Vit C; 2 mM). The shaded region indicates the standard error of n=6 stimulation attempts. Dark traces indicate positive controls collected prior to treatment. Stimulation was administered at 4.5×10^2 W cm^−2. Cells were incubated with chosen ROS scavengers for 1 h prior to stimulation.

[3] = cited from earlier work
[4] = UV-Vis absorbance of motors in DMSO; type: physicochemical
Description: The UV-Vis spectrum of each motor was also acquired in DMSO (FIG. 37D) to ensure that the difference in absorbance at 400 nm was not the cause of larger or smaller responses.

C2C12 myotubes = assay: C2C12 myotube contraction (image subtraction); type: cell-based, mouse
Description: FIG. 35—Flow chart for the image subtraction process. First, the background is subtracted from the traces to account for drift during the course of the experiment (top row). After this, the traces are zeroed at the point of stimulation, and the area is calculated from the point of stimulation until the end of the experiment to yield the contraction magnitude. (bottom row).
FIGS. 40A-40D—MMs induce contraction in C2C12 myotubes, a) Confocal microscopy images of Fluo-4 and b) image subtraction of brightfield images to highlight calcium release and contractile motion in three stimulated myotubes (indicated by the red arrows) immediately before stimulation (t=0) for 1.5 s with 400-nm light, as well as 10 s and 120 s after stimulation. Scale bar=30 μm. c) Magnitude of contraction of MM 1 compared to DMSO, MM 2, MM 3, and cells treated with 10 μM U-73122. d) Mechanism of skeletal muscle cell contraction.
This method yielded images where the pixel intensity corresponds to movement over the course of the experiment (FIG. 40C), allowing us to easily visualize and quantify contraction.

C2C12 myoblasts = assay: Pathway inhibitors on MM-induced calcium release in C2C12 myoblasts; type: cell-based, mouse; details: role: inhibitor; for Effect on MM-induced calcium signaling: SQ22536 100 μM, cAMPS-Rp 200 μM
Description: FIGS. 38A-38F—Calcium release in C2C12 myoblasts occurs by means of the IP3 pathway. Average normalized fluorescence intensity traces of C2C12 myoblasts before and after treatment with a) 10 μM U-73122 (PLC inhibitor), b) 100 μM gallein (GPCRβγ inhibitor), c) 1 μM FR900359 (GPCRα inhibitor), d) 200 μM cAMPS-Rp (cAMP antagonist, inhibits PKA activation), e) 100 μM SQ22536 (adenylyl cyclase inhibitor), and f) 1 μM nintedanib (RTK inhibitor).
It was determined that MMs activate the IP3 pathway by inhibiting key proteins along the pathway. If inhibition of a specific protein decreases the magnitude of the observed calcium responses, then it can be assumed that the targeted protein played an important role in propagating the calcium signaling pathway that was initiated by MMs. […] When both gallein and FR900359 are used simultaneously, a similar decrease of ~50% also occurs (FIG. 33). […] This may occur either through direct MM activation or indirectly through MM activation of a different signaling pathway. It is known that RTKs can also activate PLC (Bill and Vines, 2020).
The effect of cAMP pathway inhibition on the elicited calcium signaling responses was measured by using 100 μM SQ22536 to inhibit adenylyl cyclase (FIG. 38D) and 200 μM cAMPS-Rp (FIG. 38E), a cAMP antagonist that inhibits protein kinase A (PKA) activation. […] At this moment it cannot be concluded whether this effect is because MMs also activate the GPCRs associated with the cAMP pathway, or if inhibition of adenylyl cyclase and PKA naturally affects normal calcium signaling pathways, regardless of MM stimulation.

Molecule: [Gd+3] [Gd^3+, gadolinium]
- Effect on MM-induced calcium responses (HEK293 cells [1]; Gd^3+ 50 μM): did not affect the observed responses

Molecule: O=C1O[C@H]([C@@H](O)CO)C(O)=C1O [L-ascorbic acid]
- Effect of ROS scavenger on MM induced ICW (HEK293 cells [2]): does not affect MM induced ICW

Molecule: CN(C)CCNc1ccc2c(c1)Sc1ccccc1C2=C1CCc2ccc3ccccc3c21 [MM 2 (fast, bidirectional)]
- Rotation rate [3]: ~ 3 MHz
- Absorbance at 400 nm [4]: nearly identical absorbances at 400 nm
- Myotube contraction (C2C12 myotubes; 400-nm light 1.5 s, image subtraction): Strong cellular contraction did not occur

Molecule: Nc1ncnc2c1ncn2C1CCCO1 (stereo not shown) [SQ22536]
- Effect on MM-induced calcium signaling (C2C12 myoblasts): small reduction in calcium signaling

Molecule: COc1ccc2c(c1)CC[C@@H]1[C@@H]2CC[C@]2(C)[C@@H](NCCCCCCN3C(=O)C=CC3=O)CC[C@@H]12 [U-73122, reference compound]
- Myotube contraction magnitude with PLC inhibitor (C2C12 myotubes; role: inhibitor, U73 (10 μM) with MM 1 + light): contraction magnitude equal to that of the DMSO control
- Effect on MM-induced calcium responses (C2C12 myoblasts; U-73122 10 μM): completely abolished

Molecule: Nc1ncnc2c1ncn2[C@@H]1O[C@@H]2CO[P@@](O)(=S)O[C@H]2[C@H]1O [cAMPS-Rp]
- Effect on MM-induced calcium signaling (C2C12 myoblasts): small reduction in calcium signaling

Molecule: C=C1[C@@H](C)[C@H]2[C@H](Cc3ccccc3)NC(=O)[C@]23[C@H](OC(C)=O)/C=C/[C@@](C)(O)C(=O)[C@@H](C)C/C=C/[C@H]3[C@@H]1O [cytochalasin D]
- Effect on MM-induced calcium responses (HEK293 cells [1]; cytochalasin D 2 μM, P=0.01762): inhibited

Molecule: O=C1OC2(c3ccccc31)c1ccc(O)c(O)c1Oc1c2ccc(O)c1O [gallein]
- inhibition at 100 µM (C2C12 myoblasts; Mus musculus, C2C12, gallein 100 μM, read-out: Reduction in observed calcium response): ~50%

Molecule: COc1ccc2[nH]cc(CCNC(C)=O)c2c1 [melatonin]
- Effect of ROS scavenger on MM induced ICW (HEK293 cells [2]): does not affect MM induced ICW

Molecule: COC(=O)c1ccc2c(c1)NC(=O)/C2=C(\Nc1ccc(N(C)C(=O)CN2CCN(C)CC2)cc1)c1ccccc1 [nintedanib]
- Effect on MM-induced calcium responses (C2C12 myoblasts; nintedanib 1 μM (RTK inhibition)): no decrease in magnitude of the elicited calcium responses

Molecule: N.N.N.N.N.N.N.N.N.N.N.N.N.N.[Cl-].[Cl-].[Cl-].[Cl-].[Cl-].[Cl-].[O-2].[O-2].[Ru+3].[Ru+3].[Ru+4] [ruthenium red]
- Effect on MM-induced calcium responses (HEK293 cells [1]; ruthenium red 1 μM (10 μM in Table 2)): did not decrease the magnitude of MM-induced calcium responses

Molecule: C/C=C(/C)C(=O)O[C@H]1C(C)=C2[C@H]([C@@H]1OC(=O)CCCCCCC)[C@@](C)(OC(C)=O)C[C@H](OC(=O)CCC)[C@@]1(O)[C@H]2OC(=O)[C@@]1(C)O [thapsigargin]
- Effect on MM-induced calcium responses (HEK293 cells [1]; thapsigargin 1 μM, P=0.00257): did not show any measurable calcium flux upon light stimulation

Molecule: NC(N)=S [thiourea]
- Effect of ROS scavenger on MM induced ICW (HEK293 cells [2]): does not affect MM induced ICW

Molecule: C1CCC[C@H]2CCCN3CC[C@@H](CCCCCC[C@@H]4CCCN5CC[C@@H](CC1)O[C@@H]45)O[C@@H]23 [xestospongin C]
- Effect on MM-induced calcium responses (HEK293 cells [1]; XeC 25 μM (20 μM in Table 2), P=0.0167): significantly diminished the strength of cellular responses to MM

Molecule: FR900359
- Reduction in observed calcium response (C2C12 myoblasts; FR900359 1 μM): ~ 50%

Molecule: ryanodine
- Effect on MM-induced calcium response amplitude (HEK293 cells [1]; ryanodine 100 μM): no effect on response amplitude
